Measured values as given in article PMC10726920 (Cancer Medicine, 2023).
“Also recorded” adds a separate entry of the source. Like-named read-outs stand apart in the source and are kept apart here.

Columns and labels:
[1] = tested on: human ALL cell line xenografts; parameters: method as in PMID 26917778; conditions: cited from earlier work
[2] = tested on: patients with advanced multiple myeloma; parameters: method as in PMID 26800393; conditions: orally daily; cited from earlier work
BCR‐ABL‐positive ALL = tested on: BCR‐ABL‐positive ALL; parameters: method as in PMID 23090679; conditions: cited from earlier work
[3] = tested on: mTOR pathway substrates 4EBP1, S6, AKT; assay: Immunoblotting of paired bone marrow samples (pretreatment vs Day 8) from trial patients; type: in vivo, human
Excerpt: Bone marrow aspirates harvested prior to treatment and again prior to drug administration on Day 8 ± 2 of treatment from the same patients were shipped overnight to a central laboratory, where marrow mononuclear cells isolated on Ficoll–Hypaque gradients were lysed under denaturing conditions that preserve protein phosphorylations. Paired whole cell lysates were subjected to SDS‐polyacrylamide gel electrophoresis and immunoblotting as described in the Supplementary Method: Data S1.
Cells were isolated from bone marrow or blood samples using Histopaque-1077 (Millipore-Sigma, St. Louis, MO) step gradients. […] Cells for ex vivo drug exposure were resuspended at a concentration of 1 x 10^6 cells/ml in RPMI 1640 medium containing 10% (v/v) heat-inactivated fetal bovine serum, 50 U/ml penicillin G, 50 µg/ml streptomycin, and 1 mM glutamine.
(§1) After samples were dialyzed sequentially into 4 M urea and 0.1% (w/v) SDS, lyophilized and reconstituted in SDS-sample buffer consisting of 4 M urea, 2% (w/v) SDS, […] (pH 6.8 at 4 °C), 10 mM EDTA, and 1% (w/v/) 2-mercaptoethanol, aliquots containing […] of total cellular protein were subjected to SDS-PAGE on gels containing 5-20% polyacrylamide gradients, transferred to nitrocellulose, and probed with antibodies as previously described ^34, 35. […]

[4] = tested on: phospho-4EBP1 (direct mTORC1 substrate) in Jurkat ALL cell line; assay: Immunoblotting of Jurkat cells treated 24 h with sapanisertib; type: cell-based, human
Excerpt: FIGURE 2 Effect of MLN0128 concentrations on mTOR‐associated phosphorylation in vitro, ex vivo, and in the context of the present trial. […] (C) Samples harvested from the indicated patients prior to treatment (lanes 1, 4, 6, 8, and 10), on Day 8 prior to therapy (lanes 2, 5, 7, 9, and 11), or at the time of removal from study after 6 weeks (lane 3) were subjected to SDS‐PAGE and blotting for the indicated antigens. Jurkat cells (lane 12) were included in the blot because they were known to be positive for all analytes.[29] The housekeeping protein nucleolin (NCL) served as a loading control.
as §1

[5] = tested on: patients with advanced solid malignancies; conditions: original drug formulation, daily dosing; cited from earlier work
[6] = tested on: human ALL lines and clinical ALL samples; parameters: method as in PMID 26917778; conditions: cited from earlier work
[7] = Plasma pharmacokinetics, Cycle 1 (LC-MS, non-compartmental); type: in vivo, human; conditions: for half-life / Tmax / concentration at 7 days / AUC(0-t) / Cmax: human, plasma, 3 mg; for concentration at 7 days: after 7 days of dosing
Method: (§2) Blood samples were obtained on Days 1, 2, and 8 of Cycle 1. […] plasma concentrations were measured using liquid chromatography‐mass spectroscopy. Plasma concentration‐time data were analyzed by standard methods using WinNonlin. Pearson's correlation coefficient (r) was used to assess correlation of group variables. Statistical significance was defined as p < 0.05. Additional details are contained in the Supplementary Method: Data S1.
Blood samples (6 ml, sodium heparin) were obtained during the first cycle of treatment before drug administration on Days 1, 2 and 8; and 0.5, 1, 2, 3, 4, and 8 hours after the oral dose was administered on Day 1 and Day 8. After collection, tubes were immediately cooled in an ice water bath and plasma was isolated by centrifugation (10 minutes; 1,100 - 1,300 x g; 4°C) in a refrigerated centrifuge. Plasma samples were frozen immediately and stored at approximately -70°C or lower until analysis.
Plasma concentration-time data were analyzed by standard non-compartmental methods using WinNonlin (Pharsight, Mountain View, CA). Standard descriptive statistics were used to summarize plasma sapanisertib PK parameters. […] Oral steady-state clearance (ClSS/F) was calculated using the equation, ClSS = Dose/AUCτ.

[8] = Pearson correlation of sapanisertib clearance with toxicity and group variables; type: in vivo, human; conditions: p > 0.05
Method: as §2
Statistical significance was defined as P<0.05.

For `CC(C)n1nc(-c2ccc3oc(N)nc3c2)c2c(N)ncnc21` [sapanisertib], the “growth of human ALL cell line xenografts” value [1] is given as “inhibited growth”, the MTD [2] is given as 6 mg and the “growth of syngeneic mouse model of BCR‐ABL‐positive ALL” value (BCR‐ABL‐positive ALL) is given as “inhibited growth”. The “induction of BIMEL and PUMA in trial samples” value ([3]; five pairs of samples) was “minimal in one pair of samples (Patient 2) and absent from the other four pairs”, the “impact on mTOR‐mediated phosphorylation (4EBP1, S6, AKT) in trial samples” value ([3]; pretreatment vs Day 8 trough, five patients) was “limited impact; also recorded: little evidence that mTOR‐mediated phosphorylation has been disrupted; also recorded: failed to convincingly demonstrate inhibition” and the “concentration diminishing phosphorylation of 4EBP1 without change in total 4EBP1” value [4] was 62.5 to 200 nM. For the same compound, the “maximum tolerated dose (MTD)” value [5] was 6 mg/day, the “cytotoxic effects compared with rapamycin” value [6] was “greater cytotoxic effects than rapamycin” and the “C max, Mean ± SD” value ([7]; Cycle 1 Day 1, 3 mg daily oral) was 26.1 ± 8.0 ng/mL. The “CL, Mean ± SD” value ([7]; Cycle 1 Day 1, 3 mg daily oral) was 22.0 ± 14.2 L/h, the “CL, Median (range)” value ([7]; Cycle 1 Day 1, 3 mg daily oral) was 22.0 (5.8–49.2) L/hr and the “CL, Mean ± SD” value ([7]; Cycle 1 Day 8, 3 mg daily oral) was 23.3 ± 23.8 L/h. The “CL, Median (range)” value ([7]; Cycle 1 Day 8, 3 mg daily oral) was 16.4 (3.2–82.6) L/hr, the peak plasma concentration ([7]; Day 1) was 84 nM and the “time to peak concentration after drug administration” value ([7]; Day 1) was 2 h. For the same compound, the “time to peak concentration after drug administration” value ([7]; Day 8) was 1.2 h, the “time of peak concentration (mean)” value ([7]; Day 8 dose, discussion) was 1.5 h and the mean accumulation ratio ([7]; Day 8 versus Day 1 AUCall) was 1.4. The “half‐life (terminal serum)” value ([7]; discussion) was 8 h, the half-life ([7]; oral, Day 1, read-out: mean elimination half‐life (converted)) was 8.2 ± 4.9 h and the Tmax ([7]; oral, Day 1, read-out: time to peak concentration, range) was 0.5 to 4.1 h. It also gave a half-life ([7]; oral, Day 8, read-out: mean half‐life (converted)) of 24.3 ± 42.5 h, a Tmax ([7]; oral, Day 8, read-out: time to peak concentration, range) of 0.5 to 2.9 h and a concentration at 7 days ([7]; oral, read-out: median trough concentration) of 1.9 ng/mL. It also gave a concentration at 7 days ([7]; oral, read-out: trough concentration, range) of 0 to 41.6 ng/mL, an AUC(0-t) ([7]; po, Cycle 1 Day 1, 3 mg daily oral, read-out: AUC0–24 h, Mean ± SD) of 213 ± 143 ng·h/mL and an AUC(0-t) ([7]; po, Cycle 1 Day 1, 3 mg daily oral, read-out: AUC0–24 h, Median (range)) of 213 ng·h/mL. The Cmax ([7]; po, Cycle 1 Day 1, 3 mg daily oral, read-out: C max, Mean ± SD) was 26 ng/mL, the Cmax ([7]; po, Cycle 1 Day 1, 3 mg daily oral, read-out: C max, Median (range)) was 26.5 ng/mL and the half-life ([7]; po, Cycle 1 Day 1, 3 mg daily oral, read-out: Half‐life, Mean ± SD (converted)) was 8.2 ± 4.9 h. The half-life ([7]; po, Cycle 1 Day 1, 3 mg daily oral, read-out: Half‐life, Median (range) (converted)) was 7.1 h, the Tmax ([7]; po, Cycle 1 Day 1, 3 mg daily oral, read-out: T max, Mean ± SD) was 1.7 ± 1.1 h and the Tmax ([7]; po, Cycle 1 Day 1, 3 mg daily oral, read-out: T max, Median (range)) was 2 h. The AUC(0-t) ([7]; po, Cycle 1 Day 8, 3 mg daily oral, read-out: AUC0–24 h, Mean ± SD) was 361 ± 337 ng·h/mL, the AUC(0-t) ([7]; po, Cycle 1 Day 8, 3 mg daily oral, read-out: AUC0–24 h, Median (range)) was 182 ng·h/mL and the Cmax ([7]; po, Cycle 1 Day 8, 3 mg daily oral, read-out: C max, Mean ± SD) was 34.4 ± 20.9 ng/mL. For the same compound, the Cmax ([7]; po, Cycle 1 Day 8, 3 mg daily oral, read-out: C max, Median (range)) was 29.4 ng/mL, the half-life ([7]; po, Cycle 1 Day 8, 3 mg daily oral, read-out: Half‐life, Mean ± SD (converted)) was 24.3 ± 42.5 h and the half-life ([7]; po, Cycle 1 Day 8, 3 mg daily oral, read-out: Half‐life, Median (range) (converted)) was 11.3 h. For the same compound, the Tmax ([7]; po, Cycle 1 Day 8, 3 mg daily oral, read-out: T max, Mean ± SD) was 1.5 ± 0.7 h, the Tmax ([7]; po, Cycle 1 Day 8, 3 mg daily oral, read-out: T max, Median (range)) was 1.2 h and the “correlation between systemic clearance and sex, age, or total body weight” value [8] was “no significant correlation”.
